Experimental findings from the Kinase Knowledgebase extract (Sharma et al. 2016) are described below.

Usually IC50 stands for the concentration at which inhibition is half-maximal. A high value points to weaker potency.

Where “and” joins values, the source holds several entries; their conditions need not be identical. Equal entries are not always repeated.

Chain of PIK3CD (Human) (O00329 whole entry, looked up): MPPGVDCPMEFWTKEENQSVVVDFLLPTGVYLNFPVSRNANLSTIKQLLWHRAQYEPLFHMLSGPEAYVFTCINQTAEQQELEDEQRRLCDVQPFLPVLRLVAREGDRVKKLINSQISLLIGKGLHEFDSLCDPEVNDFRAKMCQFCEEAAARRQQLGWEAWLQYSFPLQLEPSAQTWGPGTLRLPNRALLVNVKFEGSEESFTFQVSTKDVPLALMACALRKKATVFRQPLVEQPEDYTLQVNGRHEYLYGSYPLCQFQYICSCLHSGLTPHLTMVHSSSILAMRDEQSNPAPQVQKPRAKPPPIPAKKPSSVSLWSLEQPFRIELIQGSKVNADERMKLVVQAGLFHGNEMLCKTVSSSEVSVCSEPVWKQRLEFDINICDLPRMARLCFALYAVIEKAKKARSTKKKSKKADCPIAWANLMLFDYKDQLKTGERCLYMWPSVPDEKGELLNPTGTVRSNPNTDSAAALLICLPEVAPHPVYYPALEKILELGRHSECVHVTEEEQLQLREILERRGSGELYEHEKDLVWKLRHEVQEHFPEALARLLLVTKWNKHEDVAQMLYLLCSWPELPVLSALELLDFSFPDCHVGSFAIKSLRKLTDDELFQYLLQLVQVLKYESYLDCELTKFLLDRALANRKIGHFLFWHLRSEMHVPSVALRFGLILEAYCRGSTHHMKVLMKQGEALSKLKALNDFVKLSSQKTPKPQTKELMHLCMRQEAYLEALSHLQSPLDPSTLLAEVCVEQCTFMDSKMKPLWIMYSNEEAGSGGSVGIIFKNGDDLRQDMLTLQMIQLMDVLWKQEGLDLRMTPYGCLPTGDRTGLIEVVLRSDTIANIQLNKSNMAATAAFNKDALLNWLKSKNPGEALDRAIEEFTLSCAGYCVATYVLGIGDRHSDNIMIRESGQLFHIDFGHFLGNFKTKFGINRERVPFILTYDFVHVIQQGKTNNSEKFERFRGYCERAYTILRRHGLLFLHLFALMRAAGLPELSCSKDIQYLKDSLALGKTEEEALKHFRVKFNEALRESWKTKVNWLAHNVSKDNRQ

The test concerns the target PIK3CD (Human) (UniProt O00329). Nature of the test: Assessment of PIK3CD Kinase Activity.
In the case of `COC[C@H]1CCCN1c1c(C(C)Nc2ncnc3[nH]cnc23)cc(Cl)c2cccnc12` (stereo not given in full), the IC50 is 100 to 250 nM.

As to `Cc1nc(C(C)Nc2ncnc3[nH]cnc23)c(-c2cccc(F)c2)c2ccccc12` (stereo not given), the IC50 was in the range of 100 to 250 nM.

For the molecule `CC(Nc1ncnc2[nH]cnc12)c1cc(Cl)c2cccnc2c1N1CCN(C(=O)C2CC2)CC1` (stereo not given), the IC50 was less than 50 nM.

In the case of `CC(C)C(=O)N[C@H]1CCN(c2c(C(C)Nc3ncnc4[nH]cnc34)cc(Cl)c3cccnc23)C1` (stereo not given in full), the IC50 was less than 50 nM.

`COCC(=O)N1CCN(c2c(C(C)Nc3ncnc4[nH]cnc34)cc(Cl)c3cccnc23)CC1` (stereo not given) had an IC50 of less than 50 nM.

Consider `CC(Nc1ncnc2[nH]cnc12)c1cc(Cl)c2cccnc2c1N1CCN(C(=O)c2ccc(F)cc2)CC1` (stereo not given), for which the IC50 fell in the range of 100 to 250 nM.

Take `CC(Nc1ncnc2[nH]cnc12)c1cc(Cl)c2cccnc2c1N1CC[C@H](NS(C)(=O)=O)C1` (stereo not given in full): the IC50 is 250 to 500 nM and < 50 nM.

Consider `CC(Nc1ncnc2[nH]cnc12)c1cc(Cl)c2cccnc2c1N1CCCC(CO)C1` (stereo not given), for which the IC50 lay in the range of 100 to 250 nM.

`CC(Nc1ncnc2[nH]cnc12)c1ccc2cccnc2c1-c1cncc(F)c1` (stereo not given) displayed an IC50 of 500 to 1000 nM.

As for `CC(Nc1ncnc2[nH]cnc12)c1cc(Cl)c2cccnc2c1N1CCN(C2CCC2)CC1` (stereo not given), the IC50 was less than 50 nM.

In turn, `Cc1cc(C(C)Nc2ncnc3[nH]cnc23)c(-c2cc(F)cc(F)c2)c2nnccc12` (stereo not given) yielded an IC50 of less than 50 nM.

`COc1ccc(-c2c(C(C)Nc3ncnc4[nH]cnc34)cc(Cl)c3ccnnc23)cc1F` (stereo not given): the IC50 was in the range of 500 to 1000 nM.

Molecule `CC(Nc1ncnc2[nH]cnc12)c1cc(Cl)c2cccnc2c1N1CCN(CC(=O)N(C)C)CC1` (stereo not given) had an IC50 of less than 50 nM.

`CC(Nc1ncnc2[nH]cnc12)c1cc(F)c2cccnc2c1N1CC[C@@H](O)C1` (stereo not given in full) had an IC50 of 100 to 250 nM.

Molecule `Cc1cc(C(C)Nc2ncnc3[nH]cnc23)c(-c2cccc(F)c2)c2ncccc12` (stereo not given) came in with an IC50 of 100 to 250 nM.

As to `CC(Nc1ncnc2[nH]cnc12)c1cc(Cl)c2ccnnc2c1-c1cc(F)cc(F)c1` (stereo not given), the IC50 was less than 50 nM.

`CC(Nc1ncnc2[nH]cnc12)c1cc(F)c2cccnc2c1N1CCN(C2CCC2)CC1` (stereo not given) came in with an IC50 of less than 50 nM.

In turn, `CC(Nc1ncnc2[nH]cnc12)c1cc(Cl)c2cn[nH]c2c1-c1cccc(F)c1` (stereo not given) displayed an IC50 of less than 50 nM.

Turning to `CC(Nc1ncnc2[nH]cnc12)c1cc(Cl)c2ccccc2c1N1CCC(O)CC1` (stereo not given), the IC50 was less than 50 nM.

`CC(Nc1ncnc2[nH]cnc12)c1cc(Cl)c2ccccc2c1-c1cccc(F)c1` (stereo not given) displayed an IC50 of 100 to 250 nM.

In the case of `COC(=O)N1CCN(c2c(C(C)Nc3ncnc4[nH]cnc34)cc(Cl)c3cccnc23)CC1` (stereo not given), the IC50 was less than 50 nM.

As for `C[C@H](Nc1ncnc2[nH]cnc12)c1cc(F)c2cccnc2c1-c1cccc(F)c1`, the IC50 is less than 50 nM.

`CC(Nc1ncnc2[nH]cnc12)c1cc(Cl)c2ccnnc2c1-c1ccnc(F)c1` (stereo not given) returned an IC50 of 500 to 1000 nM.

As for `CC(Nc1ncnc2[nH]cnc12)c1cc(Cl)c2cccnc2c1N1CCC(NS(C)(=O)=O)CC1` (stereo not given), the IC50 fell in the range of 100 to 250 nM.

As for `CCC(Nc1ncnc2[nH]cnc12)c1cc(Cl)c2ccnnc2c1-c1cccc(F)c1` (stereo not given), the IC50 is less than 50 nM.

`CC(Nc1ncnc2[nH]cnc12)c1cc(Cl)c2cccnc2c1N1CCN(C(=O)c2cccnc2)CC1` (stereo not given) returned an IC50 of less than 50 nM.

`CC(Nc1ncnc2[nH]cnc12)c1cc(Cl)c2cccnc2c1N1CCN(CCO)CC1` (stereo not given) yielded an IC50 of less than 50 nM.

With `COC1CCN(c2c(C(C)Nc3ncnc4[nH]cnc34)cc(Cl)c3cccnc23)C1` (stereo not given), the IC50 was < 50 nM and 50 to 100 nM.

In turn, `CC(Nc1ncnc2[nH]cnc12)c1cc(Cl)c2cccnc2c1N1CCCC(F)C1` (stereo not given) yielded an IC50 of 250 to 500 nM.

On to `CC(Nc1ncnc2[nH]cnc12)c1cc(Cl)c2cccnc2c1N1CCC(F)CC1` (stereo not given), for which the IC50 lay within 100 to 250 nM.

`CC(Nc1ncnc2[nH]cnc12)c1cc(Cl)c2cccnc2c1N1CCN(C2CCCCC2)CC1` (stereo not given) returned an IC50 of 50 to 100 nM.

The molecule `CC(Nc1ncnc2[nH]cnc12)c1cc(Cl)c2cccnc2c1N1CC[C@@H](O)C1` (stereo not given in full) returned an IC50 of less than 50 nM.

Molecule `CC(Nc1ncnc2[nH]cnc12)c1cc(Cl)c2cccnc2c1N1CCN(C(=O)c2ccccn2)CC1` (stereo not given) gave an IC50 of less than 50 nM.

The molecule `CC(Nc1ncnc2[nH]cnc12)c1ccc2cccnc2c1-c1ccccc1F` (stereo not given) gave an IC50 of 500 to 1000 nM.

In the case of `CC(Nc1ncnc2[nH]cnc12)c1cc(Cl)c2cccnc2c1N1CCC(CCO)CC1` (stereo not given), the IC50 was in the range of 100 to 250 nM.

Consider `CC(Nc1ncnc2[nH]cnc12)c1nc(C#N)c2ccccc2c1-c1cccc(F)c1` (stereo not given), for which the IC50 lay in the range of 50 to 100 nM.

`CC(Nc1nc(N)nc2[nH]cnc12)c1cc(F)c2ccnnc2c1-c1cccc(F)c1` (stereo not given) yielded an IC50 of less than 50 nM.

On to `CC(Nc1ncnc2[nH]cnc12)c1cc(Cl)c2cccnc2c1N1CCN(C(=O)c2ccccc2)CC1` (stereo not given), for which the IC50 was 50 to 100 nM.

In turn, `CC(Nc1ncnc2[nH]cnc12)c1cc(Cl)c2cccnc2c1N1CCN(C2CC2)CC1` (stereo not given) gave an IC50 of less than 50 nM.

Regarding `CC(Nc1ncnc2[nH]cnc12)c1cc(Cl)c2cccnc2c1N1CCN(C(=O)c2cccc(F)c2)CC1` (stereo not given), the IC50 was 100 to 250 nM.

`CC(Nc1ncnc2[nH]cnc12)c1cc(Cl)c2cccnc2c1N1CCC(c2ccccc2)C1` (stereo not given) returned an IC50 of 250 to 500 nM.

On to `CC(Nc1ncnc2[nH]cnc12)c1cc(C#N)c2cccnc2c1-c1cccc(F)c1` (stereo not given), for which the IC50 was in the range of 50 to 100 nM.

For the molecule `CC(Nc1ncnc2[nH]cnc12)c1cc(Cl)c2cccnc2c1N1CCC(F)(F)CC1` (stereo not given), the IC50 is 500 to 1000 nM.

Molecule `CC(Nc1ncnc2[nH]cnc12)c1cc(Cl)c2cccnc2c1N1CCC[C@H](O)C1` (stereo not given in full) came in with an IC50 of less than 50 nM.

With `CC(=O)NC1CCN(c2c(C(C)Nc3ncnc4[nH]cnc34)cc(Cl)c3cccnc23)CC1` (stereo not given), the IC50 is less than 50 nM.

`CC(Nc1ncnc2[nH]cnc12)c1cc(Cl)c2cccnc2c1N1CCN(C(=O)c2ccncc2)CC1` (stereo not given) came in with an IC50 of less than 50 nM.

As to `Fc1cccc(-c2c(CNc3ncnc4[nH]cnc34)cc(Cl)c3ccnnc23)c1`, the IC50 fell in the range of 500 to 1000 nM.

As to `CC(Nc1ncnc2[nH]cnc12)c1cc(Cl)c2cccnc2c1N1CCN(Cc2ccncc2)CC1` (stereo not given), the IC50 was less than 50 nM.

As for `CC(Nc1ncnc2[nH]cnc12)c1cc(Cl)c2cccnc2c1-c1ccccc1F` (stereo not given), the IC50 was 100 to 250 nM and < 50 nM.

`CC(Nc1ncnc2[nH]cnc12)c1cc(Cl)c2cccnc2c1N1CCN(C(=O)N(C)C)CC1` (stereo not given) yielded an IC50 of less than 50 nM.

In turn, `COC(=O)NC1CCN(c2c(C(C)Nc3ncnc4[nH]cnc34)cc(Cl)c3cccnc23)CC1` (stereo not given) returned an IC50 of less than 50 nM.

On to `CC(Nc1ncnc2[nH]cnc12)c1ccc2ccccc2c1-c1cncc(F)c1` (stereo not given), for which the IC50 is less than 50 nM.

`CC(Nc1ncnc2[nH]cnc12)c1cc(F)c2cccnc2c1N1CCN(C(=O)c2cnn(C)c2)CC1` (stereo not given) displayed an IC50 of less than 50 nM.

In turn, `CC(Nc1ncnc2[nH]cnc12)c1cc(Cl)c2ccncc2c1-c1cccc(F)c1` (stereo not given) came in with an IC50 of less than 50 nM.

Take `CC(Nc1ncnc2[nH]cnc12)c1ccc2cccnc2c1-c1cc(F)cc(F)c1` (stereo not given): the IC50 fell in the range of 500 to 1000 nM.
